# Results taken from patent US12653815B2, “Luminally-acting N-(piperidin-4-yl)benzamide derivatives” (Takeda Pharmaceutical Company Limited, priority 2020, dated 2026).
# Target: T1, human 5-HT4(b) receptor (Homo sapiens, UniProt Q13639)
# T1 construct: overexpressing the full-length human 5-HT4(b) receptor with an N-terminal FLAG tag; FLAG (N); host or cells: CHO-K1
# Test: 5-HT4(b) agonist assay (cAMP accumulation)
# Type: cell-based
# Details: CHO-K1 cells overexpressing full-length human 5-HT4(b) receptor; cAMP accumulation after 30 minutes at room temperature; 1 μM 5-HT as 100% activity
# Protocol: One may determine the activity of the compounds of Formula 1 using a variety of methods, including in vitro and in vivo methods. The ability of the example compounds to activate the 5-HT4(b) receptor may be determined using the following assay.
# Chinese hamster ovary (CHO-K1) cells overexpressing the full-length human 5-HT4(b) receptor with an N-terminal FLAG tag (Multispan Inc, Hayward, CA) are cultured per the manufacturer's protocol in 1:1 DMEM/F12 (Thermo Fisher, Waltham, MA) with 10% fetal bovine serum (GE Healthcare, Pittsburgh, PA) and 10 μg/mL puromycin (Thermo Fisher, Waltham, MA), and stored in frozen aliquots to be used as assay ready cells. On the day of the assay, cells are removed from frozen storage, washed two times in 1× Kreb's Ringer Buffer (Zenbio, Research Triangle Park, NC), and re-suspended to a concentration of 4×10^6 cells/mL in 1× Kreb's Ringer Buffer. Test compound (50 nL) in 100% DMSO is acoustically dispensed in low volume, white, 384-well polypropylene plates (Corning, Tewksbury, MA), followed by the addition of 4×10^4 cells per well in a total volume of 10 μL. Cells are incubated with test compound for 30 minutes at room temperature in the dark, and cAMP accumulation is measured using the Cisbio HiRange cAMP assay kit (Bedford, MA) per the manufacturer's protocol. Anti-cAMP antibody and d2-cAMP tracer reagents diluted in lysis/detection buffer are incubated in the dark for 1 hour, and results are measured on a Pherastar plate reader (BMG Labtech, Ortenberg, Germany). Data are normalized using 1 μM 5-HT (Sigma Aldrich, St. Louis, MO) as 100% activity, and DMSO alone as 0% activity.
# The ability of the example compounds to activate the 5-HT4(b) receptor was evaluated using the assay described in the Biological Activity section. Table 1, below, lists EC50 from the 5-HT4(b) agonist assay for each of the example compounds, where smaller EC50 values represent higher potency.
# T1 sequence (Q13639 whole entry): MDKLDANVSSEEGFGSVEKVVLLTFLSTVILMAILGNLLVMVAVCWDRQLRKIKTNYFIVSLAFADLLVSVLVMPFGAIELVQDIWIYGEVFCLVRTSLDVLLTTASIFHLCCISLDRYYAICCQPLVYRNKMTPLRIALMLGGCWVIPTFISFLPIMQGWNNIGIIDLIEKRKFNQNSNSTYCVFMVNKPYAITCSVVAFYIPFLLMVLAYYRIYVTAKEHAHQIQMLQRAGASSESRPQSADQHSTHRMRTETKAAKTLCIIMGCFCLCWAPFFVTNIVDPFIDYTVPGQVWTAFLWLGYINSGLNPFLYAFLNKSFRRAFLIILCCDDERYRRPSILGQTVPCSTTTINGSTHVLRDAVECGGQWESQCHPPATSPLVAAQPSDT
row,SMILES,EC50
1,"CO[C@H]1CN(CC2CCN(C(=O)CCCC(=O)NC[C@H](O)[C@@H](O)[C@H](O)[C@H](O)CO)CC2)CC[C@H]1NC(=O)c1cc(Cl)c(N)c2c1OCC2 [Example 43, 4-amino-5-chloro-N-((3S,4R)-3-methoxy-1-((1-(5-oxo-5-(((2S,3R,4R,5R)-2,3,4,5,6-pentahydroxyhexyl)amino)pentanoyl)piperidin-4-yl)methyl)piperidin-4-yl)-2,3-dihydrobenzofuran-7-carboxamide]",1.7 nM
2,"COc1cc(N)c(Cl)cc1C(=O)N[C@@H]1CCN(CCCCCC(=O)NC2CCN(CCCCCCCC(=O)NC[C@H](O)[C@@H](O)[C@H](O)[C@H](O)CO)CC2)C[C@@H]1OC [Example 8, 4-amino-5-chloro-2-methoxy-N-((3S,4R)-3-methoxy-1-(6-oxo-6-((1-(8-oxo-8-(((2S,3R,4R,5R)-2,3,4,5,6-pentahydroxyhexyl)amino)octyl)piperidin-4-yl)amino)hexyl)piperidin-4-yl)benzamide]",9.6 nM
3,"Nc1c(Cl)cc(C(=O)NC2CCN(CCCCCC(=O)NCCCC(=O)NC[C@H](O)[C@@H](O)[C@H](O)[C@H](O)CO)CC2)c2c1CCO2 [Example 34, 4-amino-5-chloro-N-(1-(6-oxo-6-((4-oxo-4-(((2S,3R,4R,5R)-2,3,4,5,6-pentahydroxyhexyl)amino)butyl)amino)hexyl)piperidin-4-yl)-2,3-dihydrobenzofuran-7-carboxamide]",15.3 nM
4,"Nc1c(Cl)cc(C(=O)NC2CCN(CCCCCC(=O)N[C@@H]3CCCN(CCCCCC(=O)NC[C@H](O)[C@@H](O)[C@H](O)[C@H](O)CO)C3)CC2)c2c1CCO2 [Example 29, 4-amino-5-chloro-N-(1-(6-oxo-6-(((R)-1-(6-oxo-6-(((2S,3R,4R,5R)-2,3,4,5,6-pentahydroxyhexyl)amino)hexyl)piperidin-3-yl)amino)hexyl)piperidin-4-yl)-2,3-dihydrobenzofuran-7-carboxamide]",4.4 nM
5,"COc1cc(N)c(Cl)cc1C(=O)N[C@@H]1CCN(CCCCCC(=O)N(C)C2CCN(CCCCCCCC(=O)NC[C@H](O)[C@@H](O)[C@H](O)[C@H](O)CO)CC2)C[C@@H]1OC [Example 10, 4-amino-5-chloro-2-methoxy-N-((3S,4R)-3-methoxy-1-(6-(methyl(1-(8-oxo-8-(((2S,3R,4R,5R)-2,3,4,5,6-pentahydroxyhexyl)amino)octyl)piperidin-4-yl)amino)-6-oxohexyl)piperidin-4-yl)benzamide]",26.1 nM
6,"COc1cc(N)c(Cl)cc1C(=O)N[C@@H]1CCN(CCCCCC(=O)NCCCCCCCC(=O)N(CCCN(C)C)CCS(=O)(=O)O)C[C@@H]1OC [Example 27, 2-(8-(6-((3S,4R)-4-(4-amino-5-chloro-2-methoxybenzamido)methoxypiperidin-1-yl)hexanamido)-N-(3-(dimethylamino)propyl)octanamido)ethane-1-sulfonic acid]",30.3 nM
7,"COc1cc(N)c(Cl)cc1C(=O)N[C@@H]1CCN(CCCCCC(=O)N[C@@H]2CCCN(CCCCCC(=O)NC[C@H](O)[C@@H](O)[C@H](O)[C@H](O)CO)C2)C[C@@H]1OC [Example 13, 4-amino-5-chloro-2-methoxy-N-((3S,4R)-3-methoxy-1-(6-oxo-6-(((R)-1-(6-oxo-6-(((2S,3R,4R,5R)-2,3,4,5,6-pentahydroxyhexyl)amino)hexyl)piperidin-3-yl)amino)hexyl)piperidin-4-yl)benzamide]",12.9 nM
8,"CO[C@H]1CN(CCCCCC(=O)NCCCCCCCC(=O)NC[C@H](O)[C@@H](O)[C@H](O)[C@H](O)CO)CC[C@H]1NC(=O)c1cc(Cl)c(N)c2c1OCC2 [Example 44, 4-amino-5-chloro-N-((3S,4R)-3-methoxy-1-(6-oxo-6-((8-oxo-8-(((2S,3R,4R,5R)-2,3,4,5,6-pentahydroxyhexyl)amino)octyl)amino)hexyl)piperidin-4-yl)-2,3-dihydrobenzofuran-7-carboxamide]",3.1 nM
